The values below come from patent US6635771B2, “N-benzhydryl indole compounds” (Wyeth, priority 2001, dated 2003).

As usually defined, the IC50 is the concentration that inhibits the measured activity by half.

The test addresses T1, cPLA2 (Homo sapiens, UniProt P47712).
T1 sequence (P47712 1-749): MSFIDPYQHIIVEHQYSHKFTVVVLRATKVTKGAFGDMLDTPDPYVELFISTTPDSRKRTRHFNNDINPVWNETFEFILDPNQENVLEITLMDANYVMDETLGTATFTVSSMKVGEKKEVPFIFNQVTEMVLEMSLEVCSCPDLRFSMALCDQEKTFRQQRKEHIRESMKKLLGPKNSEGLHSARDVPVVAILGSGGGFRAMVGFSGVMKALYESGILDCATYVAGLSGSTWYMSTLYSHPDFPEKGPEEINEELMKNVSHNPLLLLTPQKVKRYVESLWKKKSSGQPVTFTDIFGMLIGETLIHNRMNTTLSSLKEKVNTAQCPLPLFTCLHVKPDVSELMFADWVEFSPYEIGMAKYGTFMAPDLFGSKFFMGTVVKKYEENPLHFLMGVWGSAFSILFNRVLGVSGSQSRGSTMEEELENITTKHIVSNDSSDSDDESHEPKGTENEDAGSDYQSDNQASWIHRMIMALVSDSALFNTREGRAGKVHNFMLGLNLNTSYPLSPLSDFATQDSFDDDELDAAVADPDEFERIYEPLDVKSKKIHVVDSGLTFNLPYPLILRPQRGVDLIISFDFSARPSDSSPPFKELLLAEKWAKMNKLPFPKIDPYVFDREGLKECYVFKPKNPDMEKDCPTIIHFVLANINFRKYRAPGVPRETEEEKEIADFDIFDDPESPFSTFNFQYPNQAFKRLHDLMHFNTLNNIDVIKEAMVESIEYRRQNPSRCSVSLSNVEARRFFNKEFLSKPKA
Kind of test: Coumarine Assay. The class given is biochemical. Particulars: 60 μM 7-hydroxycoumarinyl 6-heptenoate substrate, 4 μg cPLA2, pH 7.5, fluorescence ex 360 nm / em 460 nm; read-out: Coumarin IC50.

Protocol: Inhibitors were mixed with 200 μL assay buffer (80 mM Heped, pH 7.5, 1 mM EDTA) containing 60 μM 7-hydroxycoumarinyl 6-heptenoate. The reaction was initiated by adding 4 μg cPLA2 in 50 μL assay buffer. Hydrolysis of the 7-hydroxycounarimyl 6-heptenoate ester was monitored in a fluorometer by exciting at 360 nm and monitoring emission at 460 nm. Enzyme activity is proportional to the increase in emission at 460 nm per minute. In the presence of a cPLA2 inhibitor, the rate of increase is less.

In the case of `COc1cccc(CS(=O)(=O)NCCc2c(CCOc3ccc(C(=O)O)cc3)c3cc(Cl)ccc3n2C(c2ccccc2)c2ccccc2)c1` [Example 77, 4-{2-[1-Benzhydryl-5chloro-2-(2-{[(3-methoxybenzyl)sulfonyl]amino}ethyl)-1H-indol-3-yl]ethoxy}benzoic acid], the IC50 came to 480 nM. Turning to `O=C(O)c1ccc(CCCc2c(CCNS(=O)(=O)Cc3cccnc3)n(C(c3ccccc3)c3ccccc3)c3ccc(Cl)cc23)cc1` [Example 62, 4-(3-[1-benzhydryl-5-chloro-2-(2-{[(3-pyridinylmethyl)sulfonyl]amino}ethyl)-1H-indol-3-yl]propyl}benzoic acid], the IC50 amounted to 380 nM. With `N#Cc1ccc(CS(=O)(=O)NCCc2c(CCOc3ccc(C(=O)O)cc3)c3cc(Cl)ccc3n2C(c2ccccc2)c2ccccc2)cc1` [Example 37, 4-{2-[1-Benzhydryl-5-chloro-2-(2-{[(4-cyanobenzyl)sulfonyl]amino}ethyl)-1H-indol-3-yl]ethoxy}benzoic acid], the IC50 was found to be 370 nM.

Consider `O=C(O)c1ccc(S(=O)(=O)CCc2c(CCNS(=O)(=O)Cc3ccc(Cl)c(Cl)c3)n(C(c3ccccc3)c3ccccc3)c3ccc(Cl)cc23)cc1` [Example 140, 4-({2-[1-benzhydryl-5-chloro-2-(2-{[(3,4-dichlorobenzyl)sulfonyl]amino}ethyl)1H-indol-3-yl]ethyl}sulfonyl)benzoic acid], for which the IC50 was determined as 200 nM. With `O=C(O)c1ccc(OCCc2c(CCNS(=O)(=O)CCc3cccc4ccccc34)n(C(c3ccccc3)c3ccccc3)c3ccc(Cl)cc23)cc1` [Example 8], the IC50 worked out at 2000 nM. To `O=C(O)c1ccc(OCCc2c(CCNS(=O)(=O)CCn3ncnn3)n(C(c3ccccc3)c3ccccc3)c3ccc(Cl)cc23)cc1` [Example 103, 4-(2-{1-benzhydryl-5-chloro-2-[2-(2-tetrazol-2-yl-ethanesulfonylamino)-ethyl]-1H-indol-3-yl}ethoxy)benzoic acid] belongs 1100 nM. To “2-(2{[(2-Aminobenzyl)sulfonyl]amino}ethyl)-4-(2-[1-benzhydryl-5-chloro-1H-indol-3-yl]ethoxy}benzoic acid [Example 16]” belongs 980 nM. As to `Cc1cccc(Cl)c1SCS(=O)(=O)NCCc1c(CCOc2ccc(C(=O)O)cc2)c2cc(Cl)ccc2n1C(c1ccccc1)c1ccccc1` [Example 84], the IC50 is 500 nM. Regarding `Cc1cccc(C)c1CS(=O)(=O)NCCc1c(CCCc2ccc(C(=O)O)cc2)c2cc(Cl)ccc2n1C(c1ccccc1)c1ccccc1` [Example 52, 4-{3-[1-benzhydryl-5-chloro-2-(2-{[(2,6-dimethylbenzyl)sulfonyl]amino}ethyl)-1H-indoly-3-yl]propyl}benzoic acid], the IC50 came out at 130 nM. In the case of `Cc1cc(C)n(CCS(=O)(=O)NCCc2c(CCCc3ccc(C(=O)O)cc3)c3cc(Cl)ccc3n2C(c2ccccc2)c2ccccc2)n1` [Example 102], the IC50 was 190 nM. On to `O=C(O)c1ccc(OCCc2c(CCNS(=O)(=O)CSc3ccccc3)n(C(c3ccccc3)c3ccccc3)c3ccc(Cl)cc23)cc1` [Example 81, 4-(2-{1-benzhydryl-5-chloro-2-[2-({[(phenylsulfanyl)methyl]sulfonyl}amino)ethyl]-1H-indol-3-yl}ethoxy)benzoic acid], for which the half-maximal inhibitory concentration (IC50) was determined as 470 nM. In the case of `O=C(O)c1ccc(OCCc2c(CCNS(=O)(=O)CSc3c(Cl)cccc3Cl)n(C(c3ccccc3)c3ccccc3)c3ccc(Cl)cc23)cc1` [Example 120, 4-(2-{1-benzhydryl-5-chloro-2-[2-(2,6-dichloro-phenylsulfanylmethanesulfonylamino)-ethyl]-1H-indol-3-yl}-ethoxy)-benzoic acid], the IC50 turned out to be 400 nM. To `CCCCS(=O)(=O)NCCc1c(CCOc2ccc(C(=O)O)cc2)c2cc(Cl)ccc2n1C(c1ccccc1)c1ccccc1` [Example 3, 4-[2-(1-Benzhydryl-2-{2-[(butylsulfonyl)amino]ethyl}-5-chloro-1H-indol-3-yl)ethoxy]benzoic acid] belongs 2500 nM; to `Cc1ccccc1CS(=O)(=O)NCCc1c(CCOc2ccc(C(=O)O)cc2)c2cc(Cl)ccc2n1C(c1ccccc1)c1ccccc1` [Example 79, 4-{2-[1-Benzhydryl-5-chloro-2-(2-{[(2-methylbenzyl)sulfonyl]amino}ethyl)-1H-indol3-yl]ethoxy}benzoic acid], 150 nM. The result for `O=C(O)c1ccc(OCCc2c(CCNS(=O)(=O)CSc3cc(Cl)cc(Cl)c3)n(C(c3ccccc3)c3ccccc3)c3ccc(Cl)cc23)cc1` [Example 85] reads 400 nM; that for `CCN(CC)S(=O)(=O)c1ccc(CS(=O)(=O)NCCc2c(CCOc3ccc(C(=O)O)cc3)c3cc(Cl)ccc3n2C(c2ccccc2)c2ccccc2)cc1` [Example 41, 4-(2-{1-Benzhydryl-5-chloro-2-[2-(4-diethylsulfamoyl-phenylmethanesulfonylamino) -ethyl]-1H-indol-3-yl}-ethoxy)-benzoic acid], 200 nM.

For `COc1ccc(SCS(=O)(=O)NCCc2c(CCOc3ccc(C(=O)O)cc3)c3cc(Cl)ccc3n2C(c2ccccc2)c2ccccc2)cc1OC` [Example 86], the half-maximal inhibitory concentration (IC50) is 600 nM. `O=C(O)c1ccc(OCCc2c(CCNS(=O)(=O)Cc3ccc(Cl)cc3[N+](=O)[O-])n(C(c3ccccc3)c3ccccc3)c3ccc(Cl)cc23)cc1` [Example 32, 4-{2-[1-benzhydryl-5-chloro-2-(2-{[(4-chloro-2-nitrobenzyl)sulfonyl]amino}ethyl)-1H-indol-3-yl]ethoxy}benzoic acid]: the IC50 is 85 nM. The result for `CC1CCCCN1CCS(=O)(=O)NCCc1c(CCOc2ccc(C(=O)O)cc2)c2cc(Cl)ccc2n1C(c1ccccc1)c1ccccc1` (centres unmarked) [Example 114, 4-[2-(1-Benzhydryl-5-chloro-2-{2-[2-(2-methyl-piperidin-1-yl)-ethanesulfonylamino]-ethyl}-1H-indol-3-yl)-ethoxy]-benzoic acid] reads 1100 nM; that for `COc1cccc(CS(=O)(=O)NCCc2c(CCCc3ccc(C(=O)O)cc3)c3cc(Cl)ccc3n2C(c2ccccc2)c2ccccc2)c1` [Example 68, 4-{3-[1-benzhydryl-5-chloro-2-(2-{[(3-methoxybenzyl)sulfonyl]amino}ethyl)-1H-indol-3-yl]propyl}benzoic acid], 160 nM; that for `Cc1ccccc1CS(=O)(=O)NCCc1c(CCCc2ccc(C(=O)O)cc2)c2cc(Cl)ccc2n1C(c1ccccc1)c1ccccc1` [Example 70, 4-{3-[1-Benzhydryl-5-chloro-2-(2-{[(2-methylbenzyl)sulfonyl]amino}ethyl)-1H-indol-3-yl]propyl}benzoic acid], 180 nM. Consider `CN(C)CC1CCCCN1CCS(=O)(=O)NCCc1c(CCOc2ccc(C(=O)O)cc2)c2cc(Cl)ccc2n1C(c1ccccc1)c1ccccc1` (centres unmarked) [Example 124, 4-[2-(1-Benzhydryl-5-chloro-2-{2-[2-(2-dimethylaminomethyl-piperidin-1-yl)-ethanesulfonylamino]-ethyl}-1H-indol-3-yl)-ethoxy]-benzoic acid], for which the IC50 is 800 nM. Take `O=C(O)c1ccc(OCCc2c(CCNS(=O)(=O)CCN3CCCC3)n(C(c3ccccc3)c3ccccc3)c3ccc(Cl)cc23)cc1` [Example 139, 4-(2-{1-Benzhydryl-5-chloro-2-[2-(2-pyrrolidin-1-yl-ethanesulfonylamino)-ethyl]-1H-indol-3-yl}-ethoxy)-benzoic acid]: the IC50 amounted to 1700 nM.
